Results reported in patent publication US11571423B2, “Small molecule modulators of human sting” (Curadev Pharma Limited, priority 2017, dated 2023).

Target: hSTING(R232) (Homo sapiens, UniProt Q86WV6, H232R)
Assay: Luciferase reporter assay in HEK293T-hSTING-Luciferase cells, R232 (wild type) human STING
Type: cell-based
Settings: 20 hr stimulation, read-out: R232 human activity (EC50 range)
From the text: Stable Cell Line Generation • a) Stable STING expressing cells—Stable HEK293T STING-expressing cell lines were generated using plasmids purchased from Invivogen, CA, USA, that contain STING cDNA cloned into the pUNO-1 vector under hEF1-HTLV promoter and containing the Blasticidin selection cassette. The plasmids hSTING(R232), hSTING(H232), hSTING(HAQ) were directly procured from Invivogen while hSTING (AQ) and hSTING (Q) were derived from hSTING(HAQ) and hSTING (R232) plasmids respectively by using a PCR based site directed mutagenesis method. These vectors were individually transfected into HEK293T cells using Lipofectamine (Invitrogen) and transfected cells were selected under Blasticidin selection. These transfected cells were further subjected to clonal selection using the limiting dilution method to obtain clonally pure populations of HEK cells transfected with each of the above mentioned human STING variants. Only those clones were selected in which ligand independent activation of STING was minimal. • b) Stable Luciferase reporter gene expressing cells—Stable HEK293T Luciferase reporter gene expressing cell lines were generated using pCDNA4 plasmids under an IRF-inducible promoter. This promoter is comprised of five tandem interferon-stimulated response elements (ISRE) fused to an ISG54 minimal promoter. This vector was transfected into HEK293T cells using Lipofectamine (Invitrogen) and transfected cells were selected under Zeocin selection. These transfected cells were further subjected to clonal selection using the limiting dilution method to obtain clonally pure populations of HEK cells transfected the Luciferase reporter construct. Only those clones were selected in which ligand independent induction of luciferase was minimal.
5×10^5 clonally selected HEK293T-hSTING-Luciferase cells were seeded in 384-well plates in growth medium and stimulated with novel compounds. After 20 hr of stimulation supernatant were removed and secretary reporter gene activity were measured using the Quanti-Luc detection system (Invivogen) on a Spectramax i3X luminometer.
In the tables below, EC50 value ranges for exemplary compounds are given.
All compounds were first tested in a primary screen to obtain a ‘fold-induction’ over baseline levels of protein activity.

hSTING(R232), sequence (Q86WV6 whole entry H232R): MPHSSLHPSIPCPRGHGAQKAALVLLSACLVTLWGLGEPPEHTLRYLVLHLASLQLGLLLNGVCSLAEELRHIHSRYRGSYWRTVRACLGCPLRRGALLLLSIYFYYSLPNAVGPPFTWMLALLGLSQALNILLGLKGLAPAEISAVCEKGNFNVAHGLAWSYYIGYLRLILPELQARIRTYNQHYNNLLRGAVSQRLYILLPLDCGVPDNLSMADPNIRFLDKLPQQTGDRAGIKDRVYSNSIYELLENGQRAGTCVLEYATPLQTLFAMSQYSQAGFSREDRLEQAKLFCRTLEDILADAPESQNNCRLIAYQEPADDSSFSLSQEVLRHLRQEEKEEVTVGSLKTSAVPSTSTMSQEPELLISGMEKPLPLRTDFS

CC1c2ccc(C(=O)NCc3c(F)cc(F)cc3F)cc2N(Cc2c(F)cccc2Cl)C(=O)N1C (racemic) [Example 74, 1-(2-chloro-6-fluorobenzyl)-3,4-dimethyl-2-oxo-N-(2,4,6-trifluorobenzyl)-1,2,3,4-tetrahydroquinazoline-7-carboxamide]
EC50: < 1000 nM

C[C@@H]1c2ccc(C(=O)NCc3c(F)cc(F)cc3F)cc2N(Cc2c(F)cccc2Cl)C(=O)N1C (single isomer, unassigned) [Example 75]
EC50: 1000 to 10000 nM

CN1Cc2ccc(C(=O)NCc3c(F)cc(F)cc3F)cc2N(Cc2cc(F)cc(F)c2)C1=O [Example 1, 1-(3,5-difluorobenzyl)-3-methyl-2-oxo-N-(2,4,6-trifluorobenzyl)-1,2,3,4-tetrahydroquinazoline-7-carboxamide]
EC50: < 1000 nM

Cc1ccc(CNC(=O)c2ccc3c(c2)N(Cc2cc(F)cc(F)c2)C(=O)N(C)C3)o1 [Example 2, 1-(3,5-difluorobenzyl)-3-methyl-N-((5-methylfuran-2-yl)methyl)-2-oxo-1,2,3,4-tetrahydroquinazoline-7-carboxamide]
EC50: > 10000 nM

O=C(NCc1c(F)cc(F)cc1F)c1ccc2c(c1)N(Cc1cc(F)cc(F)c1)C(=O)N(C1CC1)C2 [Example 3, 3-cyclopropyl-1-(3.5-difluorobenzyl)-2-oxo-N-(2,4,6-trifluorobenzyl)-1,2,3,4-tetrahydroquinazoline-7-carboxamide]
EC50: > 10000 nM

CN1Cc2ccc(C(=O)NCc3ccc(F)cc3F)cc2N(Cc2cc(F)cc(F)c2)C1=O [Example 4, N-(2,4-difluorobenzyl)-1-(3,5-difluorobenzyl)-3-methyl-2-oxo-1,2,3,4-tetrahydroquinazoline-7-carboxamide]
EC50: < 1000 nM

CN1Cc2ccc(C(=O)NCc3c(F)cc(F)cc3F)cc2N(Cc2c(F)cccc2Cl)C1=O [Example 5, 1-(2-chloro-6-fluorobenzyl)-3-methyl-2-oxo-N-(2,4,6-trifluorobenzyl)-1,2,3,4-tetrahydroquinazoline-7-carboxamide]
EC50: < 1000 nM

CN1Cc2ccc(C(=O)NCc3c(F)cc(F)cc3F)cc2N(Cc2ccc(F)cc2)C1=O [Example 6, 1-(4-fluorobenzyl)-3-methyl-2-oxo-N-(2,4,6-trifluorobenzyl)-1,2,3,4-tetrahydroquinazoline-7-carboxamide]
EC50: < 1000 nM

CCN1Cc2ccc(C(=O)NCc3c(F)cc(F)cc3F)cc2N(Cc2cc(F)cc(F)c2)C1=O [Example 7, 1-(3,5-difluorobenzyl)-3-ethyl-2-oxo-N-(2,4,6-trifluorobenzyl)-1,2,3,4-tetrahydroquinazoline-7-carboxamide]
EC50: 1000 to 10000 nM

CN1Cc2ccc(C(=O)NCc3c(F)cc(F)cc3F)cc2N(Cc2ccc(F)cc2F)C1=O [Example 8, 1-(2,4-difluorobenzyl)-3-methyl-2-oxo-N-(2,4,6-trifluorobenzyl)-1,2,3,4-tetrahydroquinazoline-7-carboxamide]
EC50: < 1000 nM

Cc1cccc(F)c1CN1C(=O)N(C)Cc2ccc(C(=O)NCc3c(F)cc(F)cc3F)cc21 [Example 9, 1-(2-fluoro-6-methylbenzyl)-3-methyl-2-oxo-N-(2,4,6-trifluorobenzyl)-1,2,3,4-tetrahydroquinazoline-7-carboxamide]
EC50: < 1000 nM

COc1cccc(F)c1CN1C(=O)N(C)Cc2ccc(C(=O)NCc3c(F)cc(F)cc3F)cc21 [Example 10, 1-(2-fluoro-6-methoxybenzyl)-3-methyl-2-oxo-N-(2,4,6-trifluorobenzyl)-1,2,3,4-tetrahydroquinazoline-7-carboxamide]
EC50: < 1000 nM

CN1Cc2ccc(C(=O)NCc3c(F)cc(F)cc3F)cc2N(Cc2c(F)cccc2Br)C1=O [Example 11, 1-(2-bromo-6-fluorobenzyl)-3-methyl-2-oxo-N-(2,4,6-trifluorobenzyl)-1,2,3,4-tetrahydroquinazoline-7-carboxamide]
EC50: < 1000 nM

CN1Cc2ccc(C(=O)NCc3c(F)cc(F)cc3F)cc2N(Cc2ccccc2F)C1=O [Example 12, 1-(2-fluorobenzyl)-3-methyl-2-oxo-N-(2,4,6-trifluorobenzyl)-1,2,3,4-tetrahydroquinazoline-7-carboxamide]
EC50: < 1000 nM

Cc1cccc(CN2C(=O)N(C)Cc3ccc(C(=O)NCc4c(F)cc(F)cc4F)cc32)c1F [Example 13, 1-(2-fluoro-3-methylbenzyl)-3-methyl-2-oxo-N-(2,4,6-trifluorobenzyl)-1,2,3,4-tetrahydroquinazoline-7-carboxamide]
EC50: < 1000 nM

CN1Cc2ccc(C(=O)NCc3c(F)cc(F)cc3F)cc2N(Cc2cccc(C(N)=O)c2)C1=O [Example 14, 1-(3-carbamoylbenzyl)-3-methyl-2-oxo-N-(2,4,6-trifluorobenzyl)-1,2,3,4-tetrahydroquinazoline-7-carboxamide]
EC50: 1000 to 10000 nM

CC(C)N1Cc2ccc(C(=O)NCc3c(F)cc(F)cc3F)cc2N(Cc2cc(F)cc(F)c2)C1=O [Example 15, 1-(3,5-difluorobenzyl)-3-isopropyl-2-oxo-N-(2,4,6-trifluorobenzyl)-1,2,3,4-tetrahydroquinazoline-7-carboxamide]
EC50: 1000 to 10000 nM

CN1Cc2ccc(C(=O)NCc3cc4ccccc4o3)cc2N(Cc2cc(F)cc(F)c2)C1=O [Example 16, N-(benzofuran-2-ylmethyl)-1-(3.5-difluorobenzyl)-3-methyl-2-oxo-1,2,3,4-tetrahydroquinazoline-7-carboxamide]
EC50: 1000 to 10000 nM

CN1Cc2ccc(C(=O)NCc3c(F)cc(F)cc3F)cc2N(Cc2ccc(F)cc2Cl)C1=O [Example 17, 1-(2-chloro-4-fluorobenzyl)-3-methyl-2-oxo-N-(2,4,6-trifluorobenzyl)-1,2,3,4-tetrahydroquinazoline-7-carboxamide]
EC50: 1000 to 10000 nM

O=C(NCc1c(F)cc(F)cc1F)c1ccc2c(c1)N(Cc1cc(F)cc(F)c1)C(=O)NC2 [Example 18, 1-(3,5-difluorobenzyl)-2-oxo-N-(2,4,6-trifluorobenzyl)-1,2,3,4-tetrahydroquinazoline-7-carboxamide]
EC50: 1000 to 10000 nM

CN1Cc2ccc(C(=O)NCc3c(F)cc(F)cc3F)cc2N(Cc2ccccc2Cl)C1=O [Example 19, l-(2-chlorobenzyl)-3-methyl-2-oxo-N-(2,4,6-trifluorobenzyl)-1,2,3,4-tetrahydroquinazoline-7-carboxamide]
EC50: 1000 to 10000 nM

O=C(NCc1c(F)cc(F)cc1F)c1ccc2c(c1)N(Cc1c(F)cccc1Cl)C(=O)N(c1ncccn1)C2 [Example 21, 1-(2-chloro-6-fluorobenzyl)-2-oxo-3-(pyrimidin-2-yl)-N-(2,4,6-trifluorobenzyl)-1,2,3,4-tetrahydroquinazoline-7-carboxamide]
EC50: > 10000 nM

COc1ccc2cc(CNC(=O)c3ccc4c(c3)N(Cc3c(F)cccc3Cl)C(=O)N(C)C4)oc2c1 [Example 22, 1-(2-chloro-6-fluorobenzyl)-N-((6-methoxybenzofuran-2-yl)methyl)-3-methyl-2-oxo-1,2,3,4-tetrahydroquinazoline-7-carboxamide]
EC50: > 10000 nM

CN1Cc2ccc(C(=O)NCc3cc4ccc(F)cc4o3)cc2N(Cc2c(F)cccc2Cl)C1=O [Example 23, 1-(2-chloro-6-fluorobenzyl)-N-((6-fluorobenzofuran-2-yl)methyl)-3-methyl-2-oxo-1,2,3,4-tetrahydroquinazoline-7-carboxamide]
EC50: 1000 to 10000 nM

CN1Cc2ccc(C(=O)NCc3cc4cc(F)ccc4o3)cc2N(Cc2c(F)cccc2Cl)C1=O [Example 24, 1-(2-chloro-6-fluorobenzyl)-N-((5-fluorobenzofuran-2-yl)methyl)-3-methyl-2-oxo-1,2,3,4-tetrahydroquinazoline-7-carboxamide]
EC50: 1000 to 10000 nM
